Laboratory results from patent US4752614A, “Pharmaceutical compositions of tellerium and selenium compounds for the induction of in vivo and in vitro production of cytokines” (Bar-Ilan University, priority 1987, dated 1988).
“And” between values parts separate entries of the source, which are not always exact repeats. Equal entries are not always repeated. Where two headings read alike, the source gives them in different places.

Columns and labels:
[1] = tested on: IL-2; test: IL-2 production by human mononuclear cells of normal donors and SLE patients (Example 20); type: cell-based
Description: Using the procedure of Example 4, human mononuclear cells were tested for their ability to produce IL-2 after induction with PHA or in unstimulated cells from normal donors and from patients suffering from systemic lupus erthyrematous. The IL-2 content was tested according to the procedure of Example 3 using the CTLD IL-2 dependent cell line.

[2] = Dissolution in aqueous vehicles; type: physicochemical; conditions: organic solvent or mixture, read-out: solubility (will dissolve)
From the text: The invention also contemplates a method for dissolving the compounds of the invention in an aqueous vehicle. This method comprises the use of ultrasound or mechanical agitation for an extended period of time which will dissolve the compound. Generally ultrasound is produced by a transformer which transforms 50/60 hertz, line voltage AC into high frequency electrical energy which is coupled to a transducer. By using piezoelectric ceramics, electrical frequency is converted into mechanical vibration. Typical amplitudes of 0.0003 for 40 k Hz equipment and 0.00007 to 0.001 for 20 k Hz equipment are useful. The transducer may be provided with a booster that is connected to a horn that has means for conducting the ultrasound to a container that holds the liquid for dissolving the compounds of the invention. Useful devices include small scale ultrasonic cleaners such as the Bronson instrument. […] The time required for this is usually 3 hours to 24 hours. High speed mechanical shakers such as a Tutenhauer shaker or waring blenders may be used for this purpose. The use of an electically operated agitator will cause the compounds to form a solution or dispersion after about 3 to 4 hours of agitation.
Using stirring 5.0 mg of the compound of Example 1 is dissolved under sterile conditions in 20 ml of glycerol. Thereafter 80 ml of PBS is added to form a solution containing 10 μg/0.2 ml.
It has been determined that the compound of Example 1 will dissolve as follows: […]

[3] = tested on: IL-2; test: IL-2 secretion by mouse spleen cells in vitro, CTLD proliferation (Example 17); type: cell-based, male Balb/c mice; conditions: 24 hours, 1 μg/ml of cell mixture
Description: The compounds listed below were tested in vitro at various concentrations that ranged from 10 μg/ml cells to 1×10^-6 μg/ml of cell mixtures. Cells were obtained from spleens of male Balb/c mice 6-8 weeks of age. Spleens were pushed through a stainless steel 60 mesh strainer to separate cells.

[4] = Preliminary toxicity (LD50) in mice; type: in vivo; conditions: 6 week old mice
[5] = tested on: experimentally induced tumor; test: In vivo effect on methylcholanthrene (MCA) induced tumor (Example 5); parameters: species or system C3 Heb mice; conditions: 10 μg IP
Description: A solution of 0.2% of methylcholanthrene (MCA, Sigma, USA) was prepared by dissolving 2 mg of the carcinogen in 1.0 ml of olive oil (Ref: Petra, et al., Cancer 19:302, 1961) with continuous shaking at 37° C. for 30 minutes. Six to eight week old C3 Heb mice were injected with 0.6 mg MCA/0.3 ml of solvent/mouse subcutaneously in the rear right thigh. After 21-30 days the induced tumor was surgically removed and pushed through 60 mesh stainless nets to obtain isolated cells. These cells were then further injected subcuteneously into the rear right thigh of C3 Heb mice 5 to 8 weeks of age, at a concentration of 10^6 cells/0.3 ml PBS/mouse/hypodermic needle 25 gauge, 5/8" to further induce tumor formation.
Five days after injection of the tumor cells, a palpable tumor was induced. The animals were thereafter treated as follows:
(a) control (0.2 ml 40% DMSO 60% PBS, IP 1 day after the induced tumor was palpable)
(b) 10 μg of compound of Example 1, IP to 5 mice (in 0.2 ml 40% DMSO 60% PBS, 3 days after the induced tumor was palpable and a second injection of 10 μg of compound in the same solvent was administered 5 days after the first injection to 3 of the 5 mice.
All animals expired 35 to 38 days after the initial innoculation.

For `Cl[TeH]1(Cl)(Cl)OCCO1` [Example 1], the IL-2 production ([1]; SLE, PHA +, 5 μg 0.2 ml PBS) was 6.3 CPM × 10^-3 and 8.2 CPM × 10^-3 and 4.1 CPM × 10^-3, the IL-2 production ([1]; SLE, PHA +, 1:50 PBS) was 24.2 CPM × 10^-3 and 28.1 CPM × 10^-3 and 23.8 CPM × 10^-3 and the IL-2 production ([1]; SLE, PHA +, 1:100 PBS) was 19.7 CPM × 10^-3 and 24.0 CPM × 10^-3 and 20.2 CPM × 10^-3. For the same molecule, the IL-2 production ([1]; SLE, PHA +, 1:200 PBS) was 15.4 CPM × 10^-3 and 18.6 CPM × 10^-3 and 16.8 CPM × 10^-3, the IL-2 production ([1]; SLE, PHA -, 5 μg 0.2 ml PBS) was 2.0 CPM × 10^-3 and 2.4 CPM × 10^-3 and the IL-2 production ([1]; SLE, PHA -, 1:100 PBS) was 32.1 CPM × 10^-3 and 35.1 CPM × 10^-3 and 18.1 CPM × 10^-3. The IL-2 production ([1]; normal, PHA +, 5 μg 0.2 ml PBS) was 36.4 CPM × 10^-3 and 30.4 CPM × 10^-3 and 38.9 CPM × 10^-3, the IL-2 production ([1]; normal, PHA +, 1:50 PBS) was 48.2 CPM × 10^-3 and 38.9 CPM × 10^-3 and 53.5 CPM × 10^-3 and the IL-2 production ([1]; normal, PHA +, 1:100 PBS) was 46.2 CPM × 10^-3 and 54.2 CPM × 10^-3 and 44.8 CPM × 10^-3. The IL-2 production ([1]; normal, PHA +, 1:200 PBS) was 38.6 CPM × 10^-3 and 49.8 CPM × 10^-3 and 38.3 CPM × 10^-3, the IL-2 production ([1]; normal, PHA -, 5 μg 0.2 ml PBS) was 2.3 CPM × 10^-3 and 2.1 CPM × 10^-3 and the IL-2 production ([1]; normal, PHA -, 1:50 PBS) was 43.6 CPM × 10^-3 and 52.2 CPM × 10^-3 and 50.8 CPM × 10^-3. The IL-2 production ([1]; normal, PHA -, 1:100 PBS) was 38.4 CPM × 10^-3 and 50.3 CPM × 10^-3 and 46.1 CPM × 10^-3, the IL-2 production ([1]; normal, PHA -, 1:200 PBS) was 30.1 CPM × 10^-3 and 47.1 CPM × 10^-3 and 31.3 CPM × 10^-3 and the solubility ([2]; 10% glycerol/90% pbs) was 1000 µg/mL. The solubility ([2]; 20% glycerol/80% pbs) was 1300 µg/mL, the solubility ([2]; 40% glycerol/60% pbs) was 6000 µg/mL and the “Spleen Cells (IL-2 activity)” value [3] was 14,600 cpm. For the same molecule, the activation at 1 µg/mL ([3]; Mus musculus, read-out: Spleen Cells, percent in parentheses (increase over control)) was 472%, the LD50 [4] was 300 μg./25 g of body weight and the “Vol. of Tumor (13 days)” value ([5]; day 3, individual mouse) was 0.77 and 1.66. For the same molecule, the “Vol. of Tumor (13 days)” value ([5]; day 3 and 5, individual mouse) was 0.7 and 0.52 and 0.31.
